Laboratory results from patent US8952024B2, “Herbicidal pyrimidone derivatives” (E I du Pont de Nemours and Company, priority 2009, dated 2015).
Read-outs that look alike come from different tables or passages of the source.

Legend:
Test in all cases: Test B pre-/postemergence plant response
Type in all cases: in vivo
[1] = test system: morningglory (Ipomoea coccinea); details: for pest or weed control at 125 g/ha: 125 g ai/ha
Method in brief: (§1)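 Each species received compound formulated in non-phytotoxic solvent with surfactant, either at planting into a loam and sand blend or as a foliar spray once plants reached 2 to 18 cm in peat-based medium. Plants stayed in the greenhouse 13 to 15 days before visual evaluation against controls, scored 0 (no effect) to 100 (complete control).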

corn (Zea mays) = details: for Corn plant response rating (crop injury, 0 = no effect, 100 = complete kill) at 31 g/ha: 31 g ai/ha; for Corn plant response rating (crop injury, 0 = no effect, 100 = complete kill) at 62 g/ha: 62 g ai/ha; for Corn plant response rating (crop injury, 0 = no effect, 100 = complete kill) at 125 g/ha: 125 g ai/ha
Method in brief: as §1

[2] = test system: Surinam grass (Brachiaria decumbens); details: for pest or weed control at 31 g/ha: 31 g ai/ha; for pest or weed control at 62 g/ha: 62 g ai/ha; for pest or weed control at 125 g/ha: 125 g ai/ha
Method in brief: as §1

[3] = test system: cocklebur (Xanthium strumarium); details: Preemergence
Method in brief: as §1

[4] = test system: blackgrass (Alopecurus myosuroides); details: for pest or weed control at 31 g/ha: 31 g ai/ha; for pest or weed control at 62 g/ha: 62 g ai/ha; for pest or weed control at 125 g/ha: 125 g ai/ha
Method in brief: as §1

soybean (Glycine max) = details: Glycine max, read-out: Plant response rating, Soybean; for plant injury at 31 g/ha: 31 g ai/ha; for plant injury at 62 g/ha: 62 g ai/ha; for plant injury at 125 g/ha: 125 g ai/ha
Method in brief: as §1

[5] = Preemergence, 250 g ai/ha, 0 to 100 scale
[6] = Zea mays, pre-emergence, Preemergence, scale 0 to 100 (0 no effect, 100 complete control)
[7] = Urochloa decumbens, pre-emergence, Preemergence, scale 0 to 100 (0 no effect, 100 complete control), read-out: Plant response rating, Surinam Grass
[8] = Alopecurus myosuroides, pre-emergence, 360 h, Preemergence, scale 0 to 100 (0 no effect, 100 complete control), read-out: Plant response rating, Blackgrass
[9] = pre-emergence, Preemergence, scale 0 to 100 (0 no effect, 100 complete control)

With COCCn1c(-c2cc(F)cc(F)c2)ncc(C(=O)C2=C(O)C3CCC(C3)C2=O)c1=O (stereo not shown) [Compound 243, 2-(3,5-difluorophenyl)-5-[(2-hydroxy-4-oxobicyclo[3.2.1]oct-2-en-3-yl)carbonyl]-3-(2-methoxyethyl)-4(3H)-pyrimidinone] the pest or weed control at 31 g/ha ([1]; Ipomoea, post-emergence, Postemergence, 31 g ai/ha, 0 to 100 scale (0 no effect, 100 complete control), read-out: Plant response rating, Morningglory) was 95%, the pest or weed control at 62 g/ha ([1]; Ipomoea, post-emergence, Postemergence, 62 g ai/ha, scale 0 to 100 (0 no effect, 100 complete control), read-out: Plant response rating, Morningglory) was 100% and the pest or weed control at 125 g/ha ([1]; Ipomoea, post-emergence, Postemergence, scale 0 (no effect) to 100 (complete control), 13 to 15 days, read-out: Plant response rating, Morningglory) was 100%. The pest or weed control at 250 g/ha ([1]; Ipomoea, post-emergence, Postemergence, 250 g ai/ha, scale 0 to 100 (0 no effect, 100 complete control), 13 to 15 days, read-out: Plant response rating, Morningglory) was 100%, the pest or weed control at 125 g/ha ([1]; Ipomoea, pre-emergence, Preemergence, scale 0 to 100, 0 no effect, 100 complete control, read-out: Plant response rating, Morningglory) was 98% and the “Morningglory plant response rating” value [1, 5] was 100. The “Corn plant response rating” value (corn (Zea mays); [5]) was 95, the Corn plant response rating (crop injury, 0 = no effect, 100 = complete kill) at 31 g/ha (corn (Zea mays); Zea mays, post-emergence, Postemergence, 0 to 100 scale (0 no effect, 100 complete control)) was 90% and the Corn plant response rating (crop injury, 0 = no effect, 100 = complete kill) at 62 g/ha (corn (Zea mays); Zea mays, post-emergence, Postemergence, scale 0 to 100 (0 no effect, 100 complete control)) was 95%. It also gave a Corn plant response rating (crop injury, 0 = no effect, 100 = complete kill) at 125 g/ha (corn (Zea mays); Zea mays, post-emergence, Postemergence, scale 0 (no effect) to 100 (complete control), 13 to 15 days) of 100%, a Corn plant response rating (crop injury, 0 = no effect, 100 = complete kill) at 250 g/ha (corn (Zea mays); Zea mays, post-emergence, Postemergence, 250 g ai/ha, scale 0 to 100 (0 no effect, 100 complete control), 13 to 15 days) of 100% and a Corn plant response rating (crop injury, 0 = no effect, 100 = complete kill) at 31 g/ha (corn (Zea mays); [6]) of 65%. For the same compound, the Corn plant response rating (crop injury, 0 = no effect, 100 = complete kill) at 62 g/ha (corn (Zea mays); [6]) was 75%, the Corn plant response rating (crop injury, 0 = no effect, 100 = complete kill) at 125 g/ha (corn (Zea mays); Zea mays, pre-emergence, Preemergence, scale 0 to 100, 0 no effect, 100 complete control) was 85% and the “Surinam Grass plant response rating” value [2, 5] was 100. For the same compound, the pest or weed control at 31 g/ha ([2]; Urochloa decumbens, post-emergence, Postemergence, 0 to 100 scale (0 no effect, 100 complete control), read-out: Plant response rating, Surinam Grass) was 90%, the pest or weed control at 62 g/ha ([2]; Urochloa decumbens, post-emergence, Postemergence, scale 0 to 100 (0 no effect, 100 complete control), read-out: Plant response rating, Surinam Grass) was 95% and the pest or weed control at 125 g/ha ([2]; Urochloa decumbens, post-emergence, Postemergence, scale 0 (no effect) to 100 (complete control), 13 to 15 days, read-out: Plant response rating, Surinam Grass) was 100%. For the same compound, the pest or weed control at 250 g/ha ([2]; Urochloa decumbens, post-emergence, Postemergence, 250 g ai/ha, scale 0 to 100 (0 no effect, 100 complete control), 13 to 15 days, read-out: Plant response rating, Surinam Grass) was 100%, the pest or weed control at 31 g/ha [2, 7] was 80% and the pest or weed control at 62 g/ha [2, 7] was 98%. For the same compound, the pest or weed control at 125 g/ha ([2]; Urochloa decumbens, pre-emergence, Preemergence, scale 0 to 100, 0 no effect, 100 complete control, read-out: Plant response rating, Surinam Grass) was 100%, the “Cocklebur plant response rating” value ([3]; 250 g ai/ha, 0 to 100 scale) was 98 and the pest or weed control at 62 g/ha ([3]; Xanthium strumarium, pre-emergence, 62 g ai/ha, scale 0 to 100 (0 no effect, 100 complete control), read-out: Plant response rating, Cocklebur) was 75%. The pest or weed control at 125 g/ha ([3]; Xanthium strumarium, pre-emergence, 125 g ai/ha, scale 0 to 100, 0 no effect, 100 complete control, read-out: Plant response rating, Cocklebur) was 95%, the pest or weed control at 31 g/ha ([4]; Alopecurus myosuroides, post-emergence, 360 h, Postemergence, 0 to 100 scale (0 no effect, 100 complete control), read-out: Plant response rating, Blackgrass) was 60% and the pest or weed control at 62 g/ha ([4]; Alopecurus myosuroides, post-emergence, 360 h, Postemergence, scale 0 to 100 (0 no effect, 100 complete control), read-out: Plant response rating, Blackgrass) was 80%. For the same compound, the pest or weed control at 125 g/ha ([4]; Alopecurus myosuroides, post-emergence, 360 h, Postemergence, scale 0 (no effect) to 100 (complete control), 13 to 15 days, read-out: Plant response rating, Blackgrass) was 85%, the pest or weed control at 250 g/ha ([4]; Alopecurus myosuroides, post-emergence, 360 h, Postemergence, 250 g ai/ha, scale 0 to 100 (0 no effect, 100 complete control), 13 to 15 days, read-out: Plant response rating, Blackgrass) was 98% and the pest or weed control at 31 g/ha [4, 8] was 0%. The pest or weed control at 62 g/ha [4, 8] was 10%, the pest or weed control at 125 g/ha ([4]; Alopecurus myosuroides, pre-emergence, 360 h, Preemergence, scale 0 to 100, 0 no effect, 100 complete control, read-out: Plant response rating, Blackgrass) was 70% and the “Blackgrass plant response rating” value [4, 5] was 95. It also gave a plant injury at 31 g/ha (soybean (Glycine max); post-emergence, Postemergence, 0 to 100 scale (0 no effect, 100 complete control)) of 95%, a plant injury at 62 g/ha (soybean (Glycine max); post-emergence, Postemergence, scale 0 to 100 (0 no effect, 100 complete control)) of 98% and a plant injury at 125 g/ha (soybean (Glycine max); post-emergence, Postemergence, scale 0 (no effect) to 100 (complete control), 13 to 15 days) of 100%. For the same compound, the plant injury at 250 g/ha (soybean (Glycine max); post-emergence, Postemergence, 250 g ai/ha, scale 0 to 100 (0 no effect, 100 complete control), 13 to 15 days) was 100%, the plant injury at 31 g/ha (soybean (Glycine max); [9]) was 65% and the plant injury at 62 g/ha (soybean (Glycine max); [9]) was 75%. The plant injury at 125 g/ha (soybean (Glycine max); pre-emergence, Preemergence, scale 0 to 100, 0 no effect, 100 complete control) was 85%.
